For one test, the system named is SCN1a+/− (het) mice. Kind of test: Kaplan Meier estimation of survival in SCN1a+/− (het) mice. The class given is in vivo, mouse. Conditions: P1-P40 SCN1a+/− (het) mice, compared to both placebo and diazepam treatment; FIG. 6. An excerpt: (§1) Epilepsy is increasingly recognized as a disease of white matter pathology and damage, see Hatton, S. N. et al [Epilepsy Currents 2021 21:27-29]. To test whether fenfluramine reduced pathology and damage to myelin, a mouse model of Dravet syndrome was used. […] Heterozygous Dravet animals used in the studies reported in Examples 2 and 3 are Scn1atm1Kea 50% C57BL/6J, 50% 129S6/SvEvTac background strain mice generated as described in Miller, A. R. et al. [Genes Brain Behav. 2014 February; 13(2): 163-172]. Briefly, a heterozygous Scn1a+/− null allele was generated by targeted deletion of the first coding exon in TL1 ES cells (12956/SvEvTac). These mice were established and maintained as a co-isogenic strain on the 12956/SvEvTac (129) background. […] P ranges, stated as, e.g. P35-P37, indicate the days postnatal of the study animals Normal axonodendritic, axonosomatic and axonoaxonic synaptic pruning occurs in all mice and peaks at postnatal P21. Postnatal ages for the study animals were chosen to avoid periods of high natural demyelination and microglial activity.

In test [1] the test system is SCN1a+/− (Dravet) mice. The test is described as follows: CD11b+ activated microglia immunostaining score in brain sections, murine model of Dravet syndrome. The class given is in vivo, mouse. Particulars: for CD11b Avg Score, Genu / CD11b Avg Score, PP / CD11b Avg Score, PP + Genu: Het mice, s.c. once daily P7 to P35-P37, FFA 15 mg/kg, diazepam 10 mg/kg; for CD11b Avg Score, Genu: genu of corpus callosum; for CD11b Avg Score, Genu / CD11b Avg Score, PP: scale 0-5; for CD11b Avg Score, PP: perforant pathway of hippocampus; for CD11b Avg Score, PP + Genu: sum of perforant pathway and genu, maximum 10, p = 0.05 Het FFA vs Het vehicle; for effect on CD11b+ activated microglia vs vehicle (saline): genu and perforant pathway of P35-P37 SCN1a+/− mice, 2-tail unequal variance t-test, FIG. 4.
Description: as §1
(§2) In Heterozygous Animals, drug or saline sham treatment began at age P7 (i.e., 7 days after birth) with subcutaneous administration of drug or saline injected via insulin syringes.
(§3) At day 7 all pups in each litter were administered an injection volume of 10 μl/g body weight once per day containing: 1) fenfluramine at 15 mg/kg; 2) diazepam at 10 mg/kg; or 3) vehicle (0.9% saline solution), each injection volume based on body weight.
(§4) The administration of each intervention continued every day until age P35-P37, at which time animals were sacrificed to obtain blood and brain tissues which amounted to an aggregate of 28 to 30 days of once daily dosing.
Vector ImPRESS-AP alkaline phosphatase conjugated anti-rabbit IgG (Vector Laboratories) was applied in the secondary detection step with Vector Blue AP substrate as the chromogen. Nuclear Fast Red was applied as a non-specific tissue counterstain before dehydration, clearing, and coverslip mounting steps. Vector Blue signals within finished slides were visualized with the DAPI (UV) excitation/emission channel on an Echo Revolve fluorescence microscope under the 20× objective. Non-specific Nuclear Fast Red staining was visualized under the Texas Red excitation/emission channel to provide anatomical contexts to the overlaid CD11b signals. Perfusion fixed sagittal 5 um FFPE brain sections within approximately 300 um from the midline of the right brains of the P35-P37 wildtype and SCN1A heterozygous 50% B6/50% 129S6 mice from the Fintepla/Diazepam/Saline comparator study were examined for CD11b+ microglia.
A 0-5 ascending pathologist scale was applied in scoring CD11b+ microglia in the perforant pathway of the hippocampus following the hippocampal fissure and murine white matter in the front knob, “genu,” of the corpus callosum (CC). The CC is an elongated midline structure composed of 200-800 million horizontal interconnecting cortical areas. The mature CC contains both myelinated and unmyelinated fibers as well as glial cells (astrocytes and oligodendrocytes), and neurons. The human CC has been divided into five anatomical regions, which include from front to back, the rostrum, the genu, the body or trunk-often subdivided into anterior, middle and posterior body-the isthmus, and the splenium. Most neurons in the callosal fibers release excitatory amino acids (glutamate or aspartate), however a small proportion of GABAergic neurons have been identified in mammals
The scores of the genu and perforant pathway were summed for each animal for a maximum possible score of 10. This antibody preferentially detects activated microglia over surveilling, quiescent microglia across human, rat, and mouse species. Normal, healthy mice have more basal microglial activation in the CNS compared to the normal human CNS.

Test [2] relates to SCN1a+/− (Dravet) mice. Kind of test: DMBP (degraded myelin basic protein) immunostaining score of myelin debris in brain sections, murine model of Dravet syndrome. Type of test: in vivo, mouse. Particulars: for DMBP Avg Score, Ctx / DMBP Avg Score, Hipp / DMBP Avg Score, Hipp + Ctx: Het mice, s.c. once daily P7 to P35-P37, FFA 15 mg/kg, diazepam 10 mg/kg; for DMBP Avg Score, Ctx: cortex; for DMBP Avg Score, Ctx / DMBP Avg Score, Hipp: scale 0-5; for DMBP Avg Score, Hipp: hippocampus, p = 0.00015 Het FFA vs Het vehicle; for DMBP Avg Score, Hipp + Ctx: sum of hippocampus and cortex, maximum 10, p = 0.01 Het FFA vs Het vehicle; for effect on myelin debris (D-MBP) score vs vehicle (saline): hippocampus and cortex of P35-P37 SCN1a+/− mice, 2-tail unequal variance t-test, FIG. 2.
Description: as §1, §2, §3, §4
Mice at the end of the dosing period were isoflurane anaesthetized and blood was drawn through cardiac ventricular puncture without perforating the heart or vessels for subsequent perfusion fixation. Blood was processed for plasma and stored at −80C. After creating an incision in the hepatic circulation to allow perfusates an exit point, mice were flushed of remaining blood with 6 mL ice cold phosphate buffered saline through the left ventricle of the heart. Mice were then perfusion fixed with an additional 6 mL of ice cold 4% paraformaldehyde before carefully harvesting right brains into 10% neutral buffered formalin for 24 hours before transferring into phosphate buffered saline with 0.02% sodium azide as an antimicrobial preservative. Right brains were then embedded to paraffin blocks and processed as formalin fixed, paraffin embedded (FFPE) 5 μm thick sagittal sections on glass slides. These FFPE tissues were immunostained, processed, and imaged for degraded myelin and inflammatory microglia.
DMBP antibody (“degraded” Myelin Basic Protein, Anti-Myelin Basic Protein, Millipore Sigma antibody, formerly Sigma AB5864) was applied at 1:1000 dilution with no antigen retrieval. This antibody preferentially detects debris of myelin degradation in human samples without cross reacting to normal myelin. Vector ImPRESS-AP alkaline phosphatase conjugated anti-rabbit IgG (Vector Laboratories) was applied in the secondary detection step with Vector Blue AP substrate as the chromogen. Nuclear Fast Red was applied as a non-specific tissue counterstain before dehydration, clearing, and coverslip mounting steps. Vector Blue signals within finished slides were visualized with the DAPI (UV) excitation/emission channel on an Echo Revolve fluorescence microscope under the 20× objective. Non-specific Nuclear Fast Red staining was visualized under the Texas Red excitation/emission channel to provide anatomical contexts to the overlaid DMBP signals.

For another test, the target named is T1, sigma-1 receptor (Homo sapiens, UniProt Q99720).
T1 construct: arrays of expression vectors, encoding full-length human plasma membrane and tethered secreted proteins; expressed in transfected cells; host or cells: HEK293
Kind of test: 3H-fenfluramine binding to proteins expressed on reverse-transfected HEK293 cell arrays (phosphorimaging). Conditions: tritium labeled fenfluramine, 1 or 5 micromolar in confirmation; HEK293 cells. As to the method: (§5) Briefly, arrays of expression vectors, encoding full-length human plasma membrane and tethered secreted proteins, were spotted onto coated slides, then HEK293 cells were grown over the top of the spots and became reverse-transfected resulting in cell surface expression of each respective protein at distinct slide locations. Tritium labeled fenfluramine was applied and specific binding analyzed and confirmed using a phosphorimaging technique. […] Confirmation was achieved by repeating the study with vectors encoding RNF43 and sigma-1 receptor proteins spotted onto slides, upon which HEK293 cells were reverse-transfected. Identical slides were treated before or after cell fixation with 1 micromolar or 5 micromolar 3H-fenfluramine, 20 nanomolar 3H-naloxone, or no compound (n=2 slides per treatment).

The target in the next test is T2, RNF43 (Homo sapiens, UniProt Q68DV7).
T2 construct: arrays of expression vectors, encoding full-length human plasma membrane and tethered secreted proteins; expressed in transfected cells; host or cells: HEK293
T2 sequence (Q68DV7 24-783): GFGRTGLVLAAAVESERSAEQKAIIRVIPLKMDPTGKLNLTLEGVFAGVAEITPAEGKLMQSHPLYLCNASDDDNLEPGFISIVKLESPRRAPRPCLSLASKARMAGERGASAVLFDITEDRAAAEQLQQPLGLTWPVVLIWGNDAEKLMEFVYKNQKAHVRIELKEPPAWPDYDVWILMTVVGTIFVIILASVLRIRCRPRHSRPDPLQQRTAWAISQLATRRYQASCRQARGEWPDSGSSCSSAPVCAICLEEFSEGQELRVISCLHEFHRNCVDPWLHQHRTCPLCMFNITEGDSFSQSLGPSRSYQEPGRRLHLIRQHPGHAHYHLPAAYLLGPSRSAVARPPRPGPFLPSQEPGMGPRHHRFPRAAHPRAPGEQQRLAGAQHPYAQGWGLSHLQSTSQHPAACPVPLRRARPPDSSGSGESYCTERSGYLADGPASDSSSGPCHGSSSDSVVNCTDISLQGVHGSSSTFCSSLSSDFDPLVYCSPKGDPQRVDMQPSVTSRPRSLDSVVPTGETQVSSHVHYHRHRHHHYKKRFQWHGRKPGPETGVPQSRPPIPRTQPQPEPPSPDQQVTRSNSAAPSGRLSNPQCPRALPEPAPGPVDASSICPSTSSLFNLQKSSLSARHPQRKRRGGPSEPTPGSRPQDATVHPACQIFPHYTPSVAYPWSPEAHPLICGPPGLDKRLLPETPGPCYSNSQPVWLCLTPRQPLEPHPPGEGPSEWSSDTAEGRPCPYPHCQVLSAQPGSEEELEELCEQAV
The description is as above. Particulars: tritium labeled fenfluramine, 1 or 5 micromolar in confirmation; HEK293 cells; FIG. 1. As for the experimental part:
as §5

T1 sequence (Q99720 whole entry): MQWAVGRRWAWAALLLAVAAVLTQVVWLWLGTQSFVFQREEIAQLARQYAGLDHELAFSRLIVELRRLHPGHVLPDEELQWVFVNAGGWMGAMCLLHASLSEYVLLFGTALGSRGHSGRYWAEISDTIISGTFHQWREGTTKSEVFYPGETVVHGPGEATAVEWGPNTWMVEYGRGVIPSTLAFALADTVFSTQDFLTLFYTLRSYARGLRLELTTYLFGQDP

Turning to `CCNC(C)Cc1cccc(C(F)(F)F)c1` (racemic) [FFA, (RS)-N-ethyl-1-[3-(trifluoromethyl)phenyl]propan-2-amine], the “probability of survival over time” value with SCN1a+/− (het) mice was “increases the probability of survival”. Also, in the test with SCN1a+/− (Dravet) mice [1], the “CD11b Avg Score, Genu” value turned out to be 2.54; the “CD11b Avg Score, PP” value worked out at 2.77; the “CD11b Avg Score, PP + Genu” value was 5.31; the “effect on CD11b+ activated microglia vs vehicle (saline)” value is listed as “reduced activated microglia”. Further, in the test on SCN1a+/− (Dravet) mice [2], the “DMBP Avg Score, Ctx” value is 2.54; the “DMBP Avg Score, Hipp” value was 2.62; the “DMBP Avg Score, Hipp + Ctx” value was determined as 5.15; the “effect on myelin debris (D-MBP) score vs vehicle (saline)” value was “significantly reduced the myelin debris (D-MBP) score”. Besides, the “binding interaction with sigma-1” value on sigma-1 receptor is given as “interactions were identified in the primary screen”. Moreover, at RNF43, the “binding interaction with RNF43” value is given as “interactions were identified in the primary screen”.

`CN1C(=O)CN=C(c2ccccc2)c2cc(Cl)ccc21` [Diazepam, diazepam]: in the test on SCN1a+/− (Dravet) mice [1], the “CD11b Avg Score, Genu” value worked out at 3.00; the “CD11b Avg Score, PP” value stood at 3.67; the “CD11b Avg Score, PP + Genu” value was found to be 6.67; the “effect on CD11b+ activated microglia vs vehicle (saline)” value is “not significant”. Moreover, in the test on SCN1a+/− (Dravet) mice [2], the “DMBP Avg Score, Ctx” value came to 2.44; the “DMBP Avg Score, Hipp” value stood at 3.22; the “DMBP Avg Score, Hipp + Ctx” value was found to be 5.67; the “effect on myelin debris (D-MBP) score vs vehicle (saline)” value is “not significant”.

These data come from patent US20230078820A1, “FE[…] TREATMENT OF DEMYELINATING DISEASES AND CONDITIONS” (ZOGENIX INTERNATIONAL LIMITED, priority 2021, published 2023).
